Results reported in patent US6433012B1, “Method for inhibiting inflammatory disease” (Large Scale Biology Corp., priority 1998, dated 2002).
Marks after values point to notes of the source that are not given here.

Experiments:
[1] = system: angiogenesis induced by hFGF-B in the chick chorioallantoic membrane (CAM); experiment: Chick chorioallantoic membrane (CAM) assay, 14C-proline incorporation into collagenous protein; type: in vivo; parameters: inhibition of hFGF-B-induced angiogenesis: dose or concentration left out as unconfirmed
Text: This example illustrates the anti-angiogenic properties of methyl-3,5-diiodo-4-(4′-methoxyphenoxy)benzoate in the chick chorioallantoic membrane assay (CAM). The endpoint of the CAM assay was a quantitative determination of basement membrane biosynthesis by measuring the incorporation of ^14C-proline into Type IV collagenous protein.
The CAM assay involves the development of live chick embryos in Petri dishes under special sterile conditions. Therefore, only limited numbers of embryos can be used for evaluation of compounds in a single experiment. For this reason, two separate assays were conducted to test the three Biosource compounds at three concentrations per compound. In this assay, a known angiogenesis inhibitor, 2-methoxyestradiol (2-ME), was used as the positive control, and human fibroblast growth factor (hFGF) was used to induce angiogenesis in the CAM.
For testing, a minimum amount of acetone-methanol (1:1) was added to the test compounds for sterilization. The acetone-methanol mixture was then evaporated to dryness in a sterile hood. The compounds were dissolved dimethyl sulfoxide (DMSO) first and then diluted with saline containing methylcellulose. The final concentrations were 2% DMSO and 0.5% methylcellulose. All test solutions were added to each CAM in […].
Fresh fertile eggs were incubated for three days in a standard egg incubator. On Day 3, eggs were cracked under sterile conditions and embryos were placed in 20×100 mm plastic Petri dishes and cultivated at 37° C. in an embryo incubator with a water reservoir on the bottom shelf. Air was continuously bubbled into the water reservoir by using a small pump so that the humidity in the incubator was kept constant. Observations were made daily to ensure that all embryos were healthy. Dead or unhealthy embryos were removed from the incubator immediately to avoid contamination. On Day 9, a sterile silicone ring cup was placed on each CAM and […] of ^14C-proline with or without the test compound plus 2.5 ng of hFGF dissolved in saline containing 0.5% methylcellulose was delivered into each ring cup in a sterile hood. 2-ME was tested in parallel to serve as a reference compound. After addition of test materials, the embryos were returned to the incubator and cultivation continued. On Day 12, all embryos were transferred to a cold room at 4-10° C. The antiangiogenic effect of each test compound was determined by using the collagenase assay (Maragoudakis, et al., J. Pharm. Exp. Ther. 251:679-682 (1989)) to measure ^14C-proline incorporation into collagenous protein.
With the embryos placed on ice, a piece of CAM 10 mm in diameter was cut off under each ring cup and placed in a separate tube. To each tube was added 1.0 mL of phosphate-buffered saline (PBS, pH 7.3) containing 0.11 mg cycloheximide and 0.17 mg dipyridyl. The tubes were placed in a boiling water bath for 10 min and then cooled to room temperature. The PBS in each tube was discarded after centrifugation at 3000× g for 10 min. The CAM residue was washed once with 3 mL of 15% TCA and then three times with 3 mL of 5% TCA. Centrifugation was carried out as described above between each washing. At this point all non-protein bound radioactivity was removed, and the CAM containing the newly synthesized ^14C-collagenous protein was suspended in 0.9 mL of 0.1 N NaOH and 1.1 mL of HEPES buffer at pH 7.4. The pH of the sample was neutralized with 0.8 N HCl, using phenol red as indicator.
To digest the ^14C-collagenous protein, 7.5 units of collagenase and 500 nmol of calcium chloride in […] of HEPES buffer was added to the above samples, and mixtures were incubated at 37° C. for 4 h. The reaction was stopped by adding 1.0 mL of 20% TCA containing 5 mg of tannic acid into each tube. After vortex mixing, the samples were centrifuged at 3000× g for 10 min. […]

[2] = system: MCF-7 human breast carcinoma cells; experiment: Chromosome condensation / prometaphase arrest; type: cell-based; details: 1 μM for 24 h
[3] = system: TNF-α mRNA in murine macrophage PU5-1.8 cell line; experiment: TNF-α mRNA in LPS-stimulated macrophages (Northern blot); type: cell-based
Method: The murine macrophage PU5-1.8 cell line was purchased from the American Type Culture Collection (ATCC, Rockville, Md.). Cells were grown in DMEM medium supplemented with […], 0.1 mM nonessential amino acids, 2 mM glutamine and 5% fetal bovine serum (Life Technologies, Staten Island, N.Y.). Cells were maintained in a humidified atmosphere of 5% CO2-95% air at 37° C. Cells were passages twice weekly by firmly tapping the side of the flask to dislodge the adherent cells. Both nonadherent and adherent cells were passages. Exponentially growing cells were seeded at 5×10 ^5/mL, 4mL per 60-mm dish 24 h prior to the experiment. Test compounds were delivered in 1 mL volumes of the medium added to each dish at the start of the experiment. All dishes were incubated at 37° C. in 5% CO2-95% air for 3 h.
Total RNA was isolated by the guanidinium-cesium chloride method as described in N. S. Waleh, J. Gallo, T. D. Grant, B. J. Murphy, R. H. Kramer and R. M. Sutherland. (1994) “Selective downregulation of integrin receptors in spheroids of squamous cell carcinoma” Cancer Res., 54:838-843. Five to 10 μg of total RNA was electrophoresed in 1% agarose gels containing 6% formaldehyde. Following electrophoresis, gels were stained with ethidium bromide to visualize the positions of 28S and 18S RNA. The RNAs were then transferred to nylon membranes (Amersham Hybond N) by capillary blotting and fixed to the filter by exposure to UV light. The blots were probed with ^32P-labeled cDNA sequences of human TNF-α obtained from the American Type Culture Collection (ATCC). The TNF-α cDNA was a 1.1 kb PstI fragment of plasmid pE4 in E. coli MM294 (ATCC 39894). Hybridizations were carried out at 42° C. in 50% formamide, 5×SSC, 5×Denhardt's solution, 0.1% SDS, and 0.3 mg/mL salmon sperm DNA. Filters were washed by 1×SSC, 0.1% SDS, twice at room temperature for 15 min and once at 55° C. in 0.1×SSC, 0.1% SDS for 1 hr. Filters were exposed to X-ray film at −70° C. using an intensifying screen (Coronex Hi-Plus).
Hybridized bands were quantified by analyzing the images obtained by using a video densitometer (Applied Imaging Corporation, Santa Clara, Calif.). Film densities were calibrated using an optical-density wedge.

[4] = system: purified tubulin; details: as a function of colchicine or vinblastine concentration
Text: Tubulin-binding antimitotic drugs interact with the protein at diverse sites.

[5] = Table 1 experiment, dose 8.3 μg/CAM
[6] = Table 1 experiment, dose 25 μg/CAM
[7] = Table 1 experiment, dose 75 μg/CAM
[8] = Table 2 experiment, dose 8.3 μg/CAM
[9] = Table 2 experiment, dose 25 μg/CAM
[10] = Table 2 experiment, dose 75 μg/CAM

Question: Which results are given for COc1cc2c(cc1O)CC[C@@H]1[C@@H]2CC[C@]2(C)[C@@H](O)CC[C@@H]12 [2-Methoxyestradiol, 2-methoxyestradiol, reference compound]?
Answer: inhibition of hFGF-B-induced angiogenesis [1]: 38%; % Inhibition [1, 5]: 9%; ^14C-Proline Incorporated into Collagenous Protein (mean ± S.E.) [1, 5]: 5711 ± 1469 cpm/mg-protien; % Inhibition [1, 6]: 20%; ^14C-Proline Incorporated into Collagenous Protein (mean ± S.E.) [1, 6]: 5068 ± 1609 cpm/mg-protien; % Inhibition [1, 7]: 38%; ^14C-Proline Incorporated into Collagenous Protein (mean ± S.E.) [1, 7]: 3875 ± 891 cpm/mg-protien; % Inhibition [1, 8]: 6%; ^14C-Proline Incorporated into Collagenous Protein (mean ± S.E.) [1, 8]: 10499 ± 1372 cpm/mg-protien; % Inhibition [1, 9]: 35%; ^14C-Proline Incorporated into Collagenous Protein (mean ± S.E.) [1, 9]: 7303 ± 1424 cpm/mg-protien; % Inhibition [1, 10]: 38%; ^14C-Proline Incorporated into Collagenous Protein (mean ± S.E.) [1, 10]: 6984 ± 1022^b cpm/mg-protien

Question: Which “chromosome condensation (prometaphase arrest)” value [2] does the source give for COc1cc2c(c(OC)c1OC)-c1ccc(OC)c(=O)cc1[C@@H](NC(C)=O)CC2 [colchicine, reference compound] here?
Answer: produced identical chromosome condensation patterns

Question: What about the “inhibition of TNF-α mRNA accumulation” value ([3]; 10 μM added to LPS (100 ng/mL) treated cultures, 3 h) of the same compound?
Answer: 68%

Question: And the “effect on TNF-α mRNA expression, compound only” value ([3]; 10 μM, without LPS, 3 h)?
Answer: no effect

Question: And the “total RNA integrity” value ([3]; cells treated with different concentrations)?
Answer: intact

Question: How did the “effect of competitor on binding of 14C-labeled BTO-956 to tubulin” value [4] turn out when CC[C@]1(O)C[C@@H]2CN(CCc3c([nH]c4ccccc34)[C@@](C(=O)OC)(c3cc4c(cc3OC)N(C)[C@H]3[C@@](O)(C(=O)OC)[C@H](OC(C)=O)[C@]5(CC)C=CCN6CC[C@]43[C@@H]65)C2)C1 [vinblastine] was run?
Answer: had no effect
